This is an account of results in patent US20020156016A1, “Control of cell growth by altering cell membrane potentials” (priority 2001, published 2002).

Holding throughout (assay type): cell-based, human
One test relates to Chang cells. The test can be described thus: Cell PD determination (TMRE fluorescence). As to conditions: non-transfected Chang cells, 50 μM muscimol, 48 hours. The procedure:
(§1) A Leica DM IRB fluorescence microscope equipped with a PDMI-2 Open perfusion Micro-incubator (Harvard Apparatus, Saint-Laurent, Quebec) was used to measure PDs as described by Loew (Loew, 1998, Cell Biology: A Laboratory Handbook). The incubating temperature was 37° C. Twenty four hour cultured healthy, human hepatocytes and malignant hepatocytes were washed with NB buffer (130 mM NaCl, 5.5 mM KCl, 1.8 mM CaCl2, 1.0 mM MgCl2, 25 mM glucose and 20 mM HEPES buffer adjusted to pH 7.4) three times and then incubated for 10 min with NTB buffer (100 nM tetramethylrhodamine ethyl ester (TMRE) in NB buffer). After obtaining photographs of the fluorescent cells, they were washed with KB buffer (130 mM KCl, 5.5 mM NaCl, 1.8 mM CaCl2, 1.0 mM MgCl2, 25 mM glucose and 20 mM HEPES buffer adjusted to pH 7.4) three times and incubated for 10 min with DTB buffer (100 nM TMRE and 1 μM valinomysin in KB buffer). Photographs were then obtained of the depolarized cells. Fluorescence within the cell was designated intracellular fluorescence (Fin) and fluorescence outside the cell as extracellular fluorescence (Fout). To calculate PDs the Nernst equation was used.
(§2) PD=−(RT/ZF)λn[Fin dFout)/(FoutdFin),
where PD is membrane potential, Z is the charge of the permeable ion, F is Faraday's constant, R is the ideal gas constant and T is the absolute temperature. […]

Test [1] relates to Chang cells transfected with GABAA-β3 receptor cDNA. In words: Proliferative activity after varying concentrations of muscimol. As to conditions: muscimol 0-100 μM, FIG. 12. The procedure: (§3) [^3H]-thymidine incorporation was determined as described by Luk (Luk, 1986, Gastroenterology 90: 1261-1267). 5×10^4 cells were seeded into 6-well plates. After two days of culture to allow attachment to plate bottoms, cells were incubated with 1 μCi [^3H]-thymidine for 2 hours at 37° C. [^3H]-thymidine incorporated into cellular DNA was precipitated by the addition of 10% trichloroacetic acid (TCA) for 15 min at room temperature. Cells were rinsed and resolublilized in a 0.3 M NaOH and 1% SDS solution then assayed for radioactivity in a […].
(§4) Bromodeoxyuridine (BrdUrd) incorporation was determined by seeding 5×10^3 cells into 96 well plates. At subconfluence, cells were incubated with serum-free DMEM. Twenty-four hours later, the media was switched to DMEM containing BrdUrd for 2 hours. Incoroporation of BrdUrd was determined using a 5-Bromo-2′-deoxyuridine Labeling and Detection Kit III (Roche Diagnostics, Mississauga, Ontario, Canada) according to the manufacturer's instructions. Absorbance at 450-490 nm was measured using a microplate reader (Molecular Devices, Menlo Park, Calif., USA).
(§5) WST-1 determinations were performed using a commercially available kit (Boehringer Mannheim Canada, Laval, Quebec, Canada). Briefly, 1×10^4 cells were seeded into 96 well plates. After two days of culture one tenth the volume of 4-[3-(4-lodophenyl)-2-(4-nitrophenyl)-2H-5-tetrazolio]-1,3-benzene disulfonate (WST-1, Boehringer Mannheim, Laval, PQ) was added to each well, and the cells incubated with WST-1 for 4 h in 37° C. Asborbance at A405-A650 was determined by a microplate reader (Molecular Devices, Menlo Park, Calif., USA).
(§6) To determine whether the addition of muscimol and/or other GABAA receptor agonists might have therapeutic value in inhibiting the growth of malignant hepatocytes with restored GABAAβ3 receptor mRNA expression, proliferative activity was documented in Chang cells transfected with GABAA-β3 receptor cDNA or vector alone following exposure to varying concentrations of muscimol (0-100 μM).

The subject of test [2] is Chang cells transfected with vector alone. The test is described as above. As to conditions: muscimol 0-100 μM, FIG. 12. The procedure:
as §3, §4, §5, §6

The test system of test [3] is Chang cells transfected with GABAA-β3 receptor cDNA. In words: Cell PD determination (TMRE fluorescence) after muscimol exposure. The protocol: as §1, §2
(§7) where PD is membrane potential, Z is the charge of the permeable ion, F is Faraday's constant, R is the ideal gas constant and T is the absolute temperature.
(§8) To determine whether further hyperpolarization could be achieved in Chang cells transfected with GABAA-β3 receptor cDNA, these cells together with non-transfected Chang cells and Chang cells transfected with vector alone were exposed to 50 μM muscimol, a specific GABAA receptor agonist for 48 hours.

Test [4] has as its system Chang cells transfected with vector alone. Described as above. Particulars: 50 μM muscimol, 48 hours. The procedure:
as §1, §2, §7, §8

Each structure is given as a SMILES string.

Regarding `NCc1cc(=O)[nH]o1` [muscimol], the “effect on PDs” value (in the test with Chang cells; in test [4]) was “little or no effect” in each case. Moreover, the proliferative activity result is recorded as “dose dependent decrease” in test [1], “significantly decreased in a dose dependent fashion” in test [1] (listed as Muscimol) and “remained essentially unaltered” in test [2]. Further, the “increase of PDs after muscimol” value in test [3] (50 μM muscimol, 48 hours) is “approximately 40%”. In test [3] (50 μM muscimol, 48 hours, pre-muscimol −12.0±0.9), this compound came in with a PD post-muscimol of −16.4±0.8. Also, the “effect on membrane potentials (PDs), in words” value in test [3] (Muscimol 50 μM, FIG. 11) is reported as “became more polarized”.
